Our source for the half-life values is US11485728B2, “Small molecules for the treatment of autoimmune diseases and cancer” (Athos Therapeutics, Inc., priority 2020, dated 2022).

In general, half-life refers to the time needed for the level to fall by half in the phase considered.

Molecules are shown by their SMILES. Bounds are passed on as bounds.

The nature of this series: In-vitro half-life in rat liver microsomes. To be noted: Rat liver microsomes 0.5 mg/mL; 1 μg/mL drug; NRS; read-out: Metabolic Half-life. In kind it is in vitro ADME. The method, then:
In each of the species (human, rat, mouse) of liver matrix to be tested, a working concentration of 2 μg/mL was prepared of each test article from the 0.5 mg/mL DMSO stock solution by adding 3 μL of 0.5 mg/mL test article stock solution to 747 μL of the 1 mg/mL liver matrix. Incubation was performed at 37±2° C. with gentle, continuous mixing in shaking water bath in 2.0 mL-well capacity 96-Deepwell plates (96-DWP). Samples were retrieved in duplicate at the following time points: 0, 5, 10, 15, 30 and 60 minutes. The final mixture contained 1 μg/mL of drug and 0.5 mg/mL of liver matrix. First, 50 μL of test articles in liver matrix was added to the 96-DWP and pre-warmed the mixture in the 96-DWP for 2 minutes in the 37° C. water bath. The enzymatic reaction was started by the addition of 50 μL of the corresponding 2× NADPH regenerating system (NRS) cofactor solution to all sample wells and stopped by the addition of 300 μL of stop solution (acetonitrile containing 10 ng/mL Tolbutamide as an internal standard (I.Std.). The samples were agitated for 10 minutes and then centrifuged for 20 minutes at 4500 rpm. 25 μL of supernatant was diluted with 475 μL acetonitrile containing I. Std. into a new 96-DWPs for LC-MS/MS analysis.
Half-life calculations were generated and calculated by Graphpad Prism® software. The half-life of test compound was calculated based on the first-order reaction kinetics. The data was transformed to linear regression (y=log(y) where “y” axis represents the % compound remaining at any given time with respect to time 0 minutes; “x” axis represents time in minutes) in order to calculate the half-life.
A comparison of metabolic stability in time-course incubation experiments in varying species of liver can provide information of pharmacokinetic properties of drugs attributable to species-related differences in hepatic metabolism. The results of these experiments often assist in further applications such as assessing in vitro metabolite profiling and choosing relevant species for toxicology studies based on similarities relative to the metabolic stability to the human profile. For these experiments, the test compound was tested in parallel with a positive control, Dasatinab, in an enzymatic reaction solution of each species (human and rat) of liver microsomes containing a NADPH regenerating system (NRS). The final mixture contained 1 μg/mL of drug and 0.5 mg/mL of liver matrix. Incubations were performed at 37±2° C. with gentle, continuous mixing in shaking water bath in 96-Deep well plates. The stability of the test compound is monitored using fast, specific and sensitive LC/MS/MS analysis.
On the technique in general: Microsomes from liver hold many membrane-bound enzymes, among them those of drug oxidation.
`COc1cc2c(NC3CCS(=O)(=O)CC3)nc(N3CCCN(C)CC3)nc2cc1OCCCN1CCCC1` [Compound 110, 4-((6-methoxy-2-(4-methyl-1,4-diazepan-1-yl)-7-(3-(pyrrolidin-1-yl)propoxy)quinazolin-4-yl)amino)tetrahydro-2H-thiopyran 1,1-dioxide]: the half-life at 1 μg/mL is > 1 h.

Consider `COc1cc2c(NC3CCN(C(C)C)CC3)nc(-n3cccn3)nc2cc1OCCCN1CCCC1` [Compound 157, N-(1-isopropylpiperidin-4-yl)-6-methoxy-2-(1H-pyrazol-1-yl)-7-(3-(pyrrolidin-1-yl)propoxy)quinazolin-4-amine], for which the half-life at 1 μg/mL is > 1 h.

As to `COc1cc2c(NC3CCOCC3)nc(N3CCCC3)nc2cc1OCCCN1CCCC1` [Compound 164, 6-methoxy-2-(pyrrolidin-1-yl)-7-(3-(pyrrolidin-1-yl)propoxy)-N-(tetrahydro-2H-pyran-4-yl)quinazolin-4-amine], the half-life at 1 μg/mL was > 1 h.

With `COc1cc2c(NC3CCNCC3)nc(N3CCC(F)(F)CC3)nc2cc1OCCCN1CCCC1` [Compound 8, 2-(4,4-difluoropiperidin-1-yl)-6-methoxy-N-(piperidin-4-yl)-7-(3-(pyrrolidin-1-yl)propoxy)quinazolin-4-amine], the half-life at 1 μg/mL was > 1 h.

For the molecule `COc1cc2c(NC3CCOCC3)nc(N3CCOCC3)nc2cc1OCCCN1CCCC1` [Compound 195, 6-methoxy-2-morpholino-7-(3-(pyrrolidin-1-yl)propoxy)-N-(tetrahydro-2H-pyran-4-yl)quinazolin-4-amine], the half-life at 1 μg/mL is > 1 h.

Take `COc1cc2c(NCC3CCN(C)CC3)nc(N3CCC(F)(F)CC3)nc2cc1OCCCN1CCCC1` [Compound 5, 2-(4,4-difluoropiperidin-1-yl)-6-methoxy-N-((1-methylpiperidin-4-yl)methyl)-7-(3-(pyrrolidin-1-yl)propoxy)quinazolin-4-amine]: the half-life at 1 μg/mL is > 1 h.

`COc1cc2c(NC3CCS(=O)(=O)CC3)nc(N3CCC(F)(F)CC3)nc2cc1C#CCN1CCCC1` [Compound 248, 4-((2-(4,4-difluoropiperidin-1-yl)-6-methoxy-7-(3-(pyrrolidin-1-yl)prop-1-yn-1-yl)quinazolin-4-yl)amino)tetrahydro-2H-thiopyran 1,1-dioxide]: the half-life at 1 μg/mL came out at 0.282 h.

On to `COc1cc2c(NC3CCN(C(C)C)CC3)nc(N3CCC3)nc2cc1OCCCN1CCCC1` [Compound 234, 2-(azetidin-1-yl)-N-(1-isopropylpiperidin-4-yl)-6-methoxy-7-(3-(pyrrolidin-1-yl)propoxy)quinazolin-4-amine], for which the half-life at 1 μg/mL was > 1 h.

In the case of `COc1cc2c(NCC(N)=O)nc(N3CCC(F)(F)CC3)nc2cc1OCCCN1CCCC1` [Compound 9, 2-((2-(4,4-difluoropiperidin-1-yl)-6-methoxy-7-(3-(pyrrolidin-1-yl)propoxy)quinazolin-4-yl)amino)acetamide], the half-life at 1 μg/mL is > 1 h.

Take `COCCN1CCC(Nc2nc(N3CCC(F)(F)CC3)nc3cc(OCCCN4CCCC4)c(OC)cc23)CC1` [Compound 3, 2-(4,4-difluoropiperidin-1-yl)-6-methoxy-N-(1-(2-methoxyethyl)piperidin-4-yl)-7-(3-(pyrrolidin-1-yl)propoxy)quinazolin-4-amine]: the half-life at 1 μg/mL is > 1 h.

As to `COc1cc2c(NC3CCOCC3)nc(N3CCS(=O)(=O)CC3)nc2cc1OCCCN1CCCC1` [Compound 196, 4-(6-methoxy-7-(3-(pyrrolidin-1-yl)propoxy)-4-((tetrahydro-2H-pyran-4-yl)amino)quinazolin-2-yl)thiomorpholine 1,1-dioxide], the half-life at 1 μg/mL is > 1 h.

In the case of `COc1cc2c(NC3CCS(=O)(=O)CC3)nc(N3CCC(F)(F)CC3)nc2cc1OCCCN1CCCC1` [Compound 1, 4-((2-(4,4-difluoropiperidin-1-yl)-6-methoxy-7-(3-(pyrrolidin-1-yl)propoxy)quinazolin-4-yl)amino)tetrahydro-2H-thiopyran 1,1-dioxide], the half-life at 1 μg/mL is > 1 h.

Consider `COc1cc2c(NC3CCN(C(C)C)CC3)nc(N3CCC(F)(F)CC3)nc2cc1OCCCN1CCCC1` [Compound 400, 2-(4,4-difluoropiperidin-1-yl)-N-(1-isopropylpiperidin-4-yl)-6-methoxy-7-(3-(pyrrolidin-1-yl)propoxy)quinazolin-4-amine, reference compound], for which the half-life at 1 μg/mL is > 1 h.

As for `COc1cc2c(NC3CCS(=O)(=O)CC3)nc(N3CCN(C)CC3)nc2cc1OCCCN1CCCC1` [Compound 109, 4-((6-methoxy-2-(4-methylpiperazin-1-yl)-7-(3-(pyrrolidin-1-yl)propoxy)quinazolin-4-yl)amino)tetrahydro-2H-thiopyran 1,1-dioxide], the half-life at 1 μg/mL was > 1 h.

In the case of `COc1cc2c(Nc3ccncc3)nc(-n3ccnc3)nc2cc1OCCCN1CCCC1` [Compound 130, 2-(1H-imidazol-1-yl)-6-methoxy-N-(pyridin-4-yl)-7-(3-(pyrrolidin-1-yl)propoxy)quinazolin-4-amine], the half-life at 1 μg/mL was > 1 h.

With `COc1cc2c(NC3CCN(C(C)C)CC3)nc(C#N)nc2cc1OCCCN1CCCC1` [Compound 235, 4-((1-isopropylpiperidin-4-yl)amino)-6-methoxy-7-(3-(pyrrolidin-1-yl)propoxy)quinazoline-2-carbonitrile], the half-life at 1 μg/mL was > 1 h.

For `COc1cc2c(NC3COC3)nc(N3CCC(F)(F)CC3)nc2cc1OCCCN1CCCC1` [Compound 11, 2-(4,4-difluoropiperidin-1-yl)-6-methoxy-N-(oxetan-3-yl)-7-(3-(pyrrolidin-1-yl)propoxy)quinazolin-4-amine], the half-life at 1 μg/mL is > 1 h.

For the molecule `COc1cc2c(NC3CCN(C(C)C)CC3)nc(-n3ccnc3)nc2cc1OCCCN1CCCC1` [Compound 156, 2-(1H-imidazol-1-yl)-N-(1-isopropylpiperidin-4-yl)-6-methoxy-7-(3-(pyrrolidin-1-yl)propoxy)quinazolin-4-amine], the half-life at 1 μg/mL was > 1 h.

With `COc1cc2c(Nc3ccncc3)nc(N3CCC(F)(F)CC3)nc2cc1OCCCN1CCCC1` [Compound 7, 2-(4,4-difluoropiperidin-1-yl)-6-methoxy-N-(pyridin-4-yl)-7-(3-(pyrrolidin-1-yl)propoxy)quinazolin-4-amine], the half-life at 1 μg/mL turned out to be 0.617 h.

On to `COc1cc2c(NC3CCOCC3)nc(N3CCCN(C)CC3)nc2cc1OCCCN1CCCC1` [Compound 237, 6-methoxy-2-(4-methyl-1,4-diazepan-1-yl)-7-(3-(pyrrolidin-1-yl)propoxy)-N-(tetrahydro-2H-pyran-4-yl)quinazolin-4-amine], for which the half-life at 1 μg/mL is 0.367 h.

With `COc1cc2c(N[C@H]3CCCNC3)nc(N3CCCC3)nc2cc1OCCCN1CCCC1` [Compound 158, (S)-6-methoxy-N-(piperidin-3-yl)-2-(pyrrolidin-1-yl)-7-(3-(pyrrolidin-1-yl)propoxy)quinazolin-4-amine], the half-life at 1 μg/mL worked out at 0.55 h.

On to `COc1cc2c(NC3CCS(=O)(=O)CC3)nc(N3CCCC3)nc2cc1OCCCN1CCCC1` [Compound 80, 4-((6-methoxy-2-(pyrrolidin-1-yl)-7-(3-(pyrrolidin-1-yl)propoxy)quinazolin-4-yl)amino)tetrahydro-2H-thiopyran 1,1-dioxide], for which the half-life at 1 μg/mL is > 1 h.

Take `COc1cc2c(NC3CCS(=O)(=O)CC3)nc(N3CCS(=O)(=O)CC3)nc2cc1OCCCN1CCCC1` [Compound 103, 4-(4-((1,1-dioxidotetrahydro-2H-thiopyran-4-yl)amino)-6-methoxy-7-(3-(pyrrolidin-1-yl)propoxy)quinazolin-2-yl)thiomorpholine 1,1-dioxide]: the half-life at 1 μg/mL is > 1 h.

In the case of `COc1cc2c(NC3CCOCC3)nc(N3CCC3)nc2cc1OCCCN1CCCC1` [Compound 174, 2-(azetidin-1-yl)-6-methoxy-7-(3-(pyrrolidin-1-yl)propoxy)-N-(tetrahydro-2H-pyran-4-yl)quinazolin-4-amine], the half-life at 1 μg/mL was > 1 h.

As for `COc1cc2c(NC3CCS(=O)(=O)CC3)nc(N3CCOCC3)nc2cc1OCCCN1CCCC1` [Compound 102, 4-((6-methoxy-2-morpholino-7-(3-(pyrrolidin-1-yl)propoxy)quinazolin-4-yl)amino)tetrahydro-2H-thiopyran 1,1-dioxide], the half-life at 1 μg/mL was > 1 h.

Take `COc1cc2c(N[C@@H]3CCCNC3)nc(N3CCCC3)nc2cc1OCCCN1CCCC1` [Compound 159, (R)-6-methoxy-N-(piperidin-3-yl)-2-(pyrrolidin-1-yl)-7-(3-(pyrrolidin-1-yl)propoxy)quinazolin-4-amine]: the half-life at 1 μg/mL worked out at 0.555 h.
